Test results: patent US20050148553A1, “Use of tigecycline, alone, or in combination with rifampin to treat osteomyelitis and/or septic arthritis” (priority 2003, published 2005)
Values after ≈ are worked out from the molar mass of the structure shown. Values joined by “and” are separate entries in the source; they are usually repeats but may differ in a detail not shown here. Equal values may be shown once. Read-outs that look alike come from different tables or passages of the source.

What was measured:
Acinetobacter baumannii = test: Compassionate use study, osteomyelitis patient; format: in vivo, human; details: one human patient
Experimental: The patient was treated with meropenem and tobramycin. […] The patient was then treated with tigecycline for two months with either 50 mg every 12 hours or 50 mg every 24 hours.

A. baumanii = test: Susceptibility of patient isolate; format: cell-based, Acinetobacter baumannii; details: A. baumanii from patient bone
[1] = Antibiotic levels in rabbit serum and bone by diffusion bioassay; format: in vivo, New Zealand white rabbits; details: infected rabbits; tigecycline 14 mg/kg, vancomycin 30 mg/kg twice daily
Experimental: Normal NZW rabbit serum (Fisher Scientific) and normal, uninfected rabbit tibia bone were used to generate standard curves for tigecycline (Wyeth-Ayerst Research, Pearl River, N.Y.), vancomycin (Abbott Laboratories, Chicago, Ill.), and rifampin (Merrell Pharmaceuticals Inc. Kansas, Mo.). Bioassays were performed with each drug to generate the standard curves for antibiotic concentration in serum and/or tibial bone.
The organism used for the bioassay was Bacillus cereus ATCC11778. Serum standards were prepared using two-fold serial dilutions with either antibiotic to yield concentrations of 25 μg/ml to 0.20 μg/ml drug in Normal NZW rabbit serum. Bone eluate standards were prepared for tigecycline by thoroughly cleaning noninfected rabbit tibias with 70% ethanol in a sterilized fume hood. Each tibia was broken into small chips of approximately 0.5 cm^2 using a grinder. The chips were placed into a sterile, 50 ml conical centrifuge tube and weighed. One milliliter of sterile, 0.9% normal saline was added for each gram of bone chips. The solution was thoroughly vortexed for two minutes. The resulting bone eluate was allowed to shake at 180 rpm in a cold room at 4° C., for 12 hours. The samples were centrifuged at 4000 rpm for 3 minutes prior to assay, to pellet the chips.
The diameter of the zone of growth inhibition around each well was measured, in millimeters. A standard curve was generated for tigecycline concentration in both serum and bone eluate and for vancomycin in serum by plotting the known antibiotic concentration against its resulting zone of inhibition measurement. […]
Serum samples were stored at −70° C. until the bioassay was performed. […] The diameter of the zone of growth inhibition around each well was measured and concentrations of tigecycline were extrapolated from the standard curve.
Peak and trough levels of antibiotic were determined for Groups 2 and 4 at 1 hour (peak) and 12 hour (trough) after the initial antibiotic administration. Antibiotic concentrations were determined by means of a bioassay. […]

[2] = system: methicillin-resistant S. aureus
Experimental: Preparation of the Infective Media: S. aureus was incubated overnight in Mueller Hinton Broth (Difco Laboratories, Detroit, Mich.) medium spiked with 40 μg/ml oxacillin, at 37° C. The bacterial concentration of the culture was adjusted to 10^7 CFU's/ml.
Rabbit Infection Procedure: New Zealand white rabbits (Ray Nicholl's Rabbitry, Lumberton, Tex.), eight to 12 weeks old and weighing 2.0 to 3.5 kg, were utilized for the study. After anesthesia was given, an 18-gauge needle was inserted percutaneously through the lateral aspect of the left tibial metaphysis into the intramedullary cavity. Next, 0.15 ml of 5% sodium morrhuate (American Regent Laboratories, Inc., Shirley, N.Y.), 0.1 ml of S. aureus (10^7 CFU/ml), and 0.2 ml of sterile, normal saline, 0.9%, were injected sequentially.
Group 1 (control group): infected but left untreated for the duration of the study. Group 2: rabbits were treated for 4 weeks with subcutaneous vancomycin at 30 mg/kg twice daily. Group 3: rabbits were treated for 4 weeks with subcutaneous vancomycin at 30 mg/kg twice daily plus oral rifampin at 40 mg/kg twice daily in 0.5% methylcellulose. Group 4: rabbits were treated for 4 weeks with subcutaneous tigecycline at 14 mg/kg twice daily. Group 5: rabbits were treated for 4 weeks with subcutaneous tigecycline at the same dose as in the rabbits in Group 4, plus oral rifampin at 40 mg/kg twice daily in 0.5% methylcellulose. […] Group 6: rabbits were treated for 1 week with subcutaneous tigecycline at the same dose as in Group 4, but were sacrificed 3 hours after administration of the last dose. At that time, blood and infected bone samples were collected and tigecycline concentration was determined. Groups 1 to 5 were left untreated for 2 weeks after treatment phase of the experiment and sacrificed at 8 weeks after infection.
Radiographs of bilateral tibias were taken at initiation of therapy (2 weeks after infection), at the end of antibiotic therapy (6 weeks after infection), and at sacrifice (8 weeks after infection). Radiographs were scored according to a visual scale (Table 1) by three investigators, each blinded to the treatment group, and the grades were averaged.
After sacrifice, gross cultures were performed for right and left tibias. Quantitative counts of S. aureus, in CFUs per gram, of left tibial bone and marrow were determined for all study groups.
Culture Preparation: The bone marrow and the intramedullary canal of bilateral tibias were swabbed with sterile cotton tip applicators for gross cultures analysis of left tibias and quality assurance checks of right tibias. The inoculated applicator was streaked onto blood plates and then placed into 5 ml of sterile TSB. The plates and tubes were then incubated at 37° C. for 24 hours and growth and/or turbidity was recorded.
The bone marrow was placed into a sterile, 50 ml centrifuge tube and weighed. The bone fragments were broken into 0.5 cm^2 chips, placed into a sterile, 50 ml centrifuge tube, and the final product weighed. Normal sterile saline, 0.9%, was added in a 3 to 1 ratio (3 ml saline/gram of bone or marrow) and the suspensions were vortexed for 2 minutes. Six ten-fold dilutions of each suspension were prepared with sterile, normal saline, 0.9%. Twenty-microliter samples of each dilution, including the initial suspension, was plated, in triplicate, onto blood agar plates and incubated at 37° C. for 24 hours. CFUs were counted at the greatest dilution for each tibia sample.

[3] = Adverse events and weight variance in infected treated rabbits; details: infected rabbits after antibiotic treatment
Text: All rabbits were monitored weekly for weight variance. […] The key for FIGS. 4A and B is as follows: Control=control group, no treatment; Vancomycin=subcutaneous vancomycin treated group; Vanco+Rifampin=subcutaneous vancomycin with oral rifampin treated group; Gar-936=subcutaneous Gar-936 treated group; Gar-936+Rifampin=subcutaneous Gar-936 with oral Rifampin treated group.

[4] = system: methicillin-resistant S. aureus; test: microbe, parasite or virus in culture; format: cell-based, Staphylococcus aureus; details: for MBC / MIC: Staphylococcus aureus; for MBC: read-out: minimum bactericidal concentration (MBC); for MIC: read-out: minimum inhibitory concentration (MIC)
Experimental: The minimum inhibitory concentrations (MIC) of tigecycline, vancomycin and rifampin were determined using an antibiotic two-fold tube-dilution method. The minimum bactericidal concentrations were also determined. The limits of sensitivity of this method were 25 μg/ml to 0.20 μg/ml.

Mycobacterium abscessus = format: in vivo, human; details: human, in vivo
Experimental: Debridement was accomplished after one year of infection with placement of hardware. […] The amikacin was later stopped due to renal damage. Linezolid and azithromycin were later added to the treatment regimen. The organism was determined to be resistant to moxifloxacin.
The patient presented later with a new vertebral osteomyelitis just above the site of the old infection. A biopsy was performed and it was determined that no additional debridement was needed. […] Tigecycline was administered up to MIC 0.25 micrograms/ml. The patient's white blood cell count was normal while hypogammaglobulinemia was present and lymphocytic function decreased. The patient had also been under treatment with IL-12, but IL-12 was held during antibiotic treatment.

M. abcessus = test: Susceptibility/MIC of patient isolate, compassionate use study; format: cell-based, Mycobacterium abscessus; details: M. abscessus patient isolate
[5] = average grade, t=14 versus t=56 days
[6] = individual rabbits, left tibia, 8 weeks after infection

C[C@@H](O)[C@H]1C(=O)N2C(C(=O)O)=C(S[C@@H]3CN[C@H](C(=O)N(C)C)C3)[C@H](C)[C@H]12 [Meropenem]
adverse event leading to discontinuation (Acinetobacter baumannii): eosinophilia

NC[C@H]1O[C@H](O[C@H]2[C@H](O)[C@@H](O[C@H]3O[C@H](CO)[C@@H](O)[C@H](N)[C@H]3O)[C@H](N)C[C@@H]2N)[C@H](N)C[C@@H]1O [tobramycin]
susceptibility of the organism (A. baumanii): susceptible | adverse event leading to discontinuation (Acinetobacter baumannii): increased creatinine

CN[C@H](CC(C)C)C(=O)N[C@H]1C(=O)N[C@@H](CC(N)=O)C(=O)N[C@H]2C(=O)N[C@H]3C(=O)N[C@H](C(=O)N[C@H](C(=O)O)c4cc(O)cc(O)c4-c4cc3ccc4O)[C@H](O)c3ccc(c(Cl)c3)Oc3cc2cc(c3O[C@@H]2O[C@H](CO)[C@@H](O)[C@H](O)[C@H]2O[C@H]2C[C@](C)(N)[C@H](O)[C@H](C)O2)Oc2ccc(cc2Cl)[C@H]1O [Vancomycin]
antibiotic serum levels (peaks and troughs) [1]: above minimum inhibitory concentrations | radiographic improvement (grade) [2, 5]: 0.5+/−0.2 | radiographic improvement (percent) [2, 5]: 25% | percentage of bone samples positive for MRSA ([2]; bone cultures): 18.2% | rabbits/samples positive for MRSA in bone ([2]; bone cultures at sacrifice): 2 out of 11 | proportion of positive cultures in marrow ([2]; compared with 0.33 (5/15) in control group): not statistically significantly different from the control group | Counts (CFU/gm) Bone [2, 6]: 270.3 CFU/gm and 1315.8 CFU/gm and 0 CFU/gm (14×) | Counts (CFU/gm) Marrow [2, 6]: 1250 CFU/gm and 0 CFU/gm (15×) | average bacterial concentration of the group ([2]; tibia bone): 1.4×10^2 CFU/gram bone | mean weight gain [3]: 0.39 kg | MIC/MBC ratio ([4]; MRSA study strain): 0.5 | MBC ([4]; MRSA): 0.78 µg/mL (≈ 0.538 µM) | MIC ([4]; MRSA): 0.39 µg/mL (≈ 0.269 µM)

NCC[C@H](O)C(=O)N[C@@H]1C[C@H](N)[C@@H](O[C@H]2O[C@H](CN)[C@@H](O)[C@H](O)[C@H]2O)[C@H](O)[C@H]1O[C@H]1O[C@H](CO)[C@@H](O)[C@H](N)[C@H]1O [amikacin, reference compound]
adverse event leading to discontinuation (Mycobacterium abscessus): renal damage

CO[C@H]1/C=C/O[C@@]2(C)Oc3c(C)c(O)c4c(O)c(c(/C=N/N5CCN(C)CC5)c(O)c4c3C2=O)NC(=O)/C(C)=C\C=C\[C@H](C)[C@H](O)[C@@H](C)[C@@H](O)[C@@H](C)[C@H](OC(C)=O)[C@@H]1C [rifampin]
bacterial outcome in bone and marrow, in words ([2]; end of study, MRSA infected rabbits): bactericidal activity | MIC/MBC ratio ([4]; MRSA study strain): 0.5 | MIC ([4]; MRSA, MRSA study strain, inoculum 10^6 CFU/ml): 0.78 µg/mL (≈ 0.948 µM) | MBC ([4]; MRSA study strain, inoculum 10^6 CFU/ml): 1.56 µg/mL (≈ 1.9 µM)

gentamicin
susceptibility of the organism (A. baumanii): susceptible

O=C(O)c1cn(C2CC2)c2cc(N3CCNCC3)c(F)cc2c1=O [ciprofloxacin]
susceptibility of the organism (A. baumanii): resistant

C[C@H]1[C@H](NC(=O)/C(=N\OC(C)(C)C(=O)O)c2csc(N)n2)C(=O)N1S(=O)(=O)O [Aztreonam]
adverse event leading to discontinuation (Acinetobacter baumannii): persistent eosinophilia

CO[C@@]1(NC(=O)Cc2cccs2)C(=O)N2C(C(=O)O)=C(COC(N)=O)CS[C@@H]21 [cefoxitin, reference compound]
susceptibility of the organism (M. abcessus): sensitive
